≈ marks a conversion by molar mass, not a printed value.
Experiments:
Type in all cases: functional
[1] = system: Staphylococcus aureus; test: Antibacterial activity against Staphylococcus aureus 4299 assessed as inhibition of bacterial growth
[2] = system: Staphylococcus saprophyticus; test: Antibacterial activity against Staphylococcus saprophyticus ATCC 15305 assessed as inhibition of bacterial growth
[3] = system: Staphylococcus aureus; test: Antibacterial activity against methicilin-resistant Staphylococcus aureus 42412 assessed as inhibition of bacterial growth
[4] = system: Staphylococcus aureus; test: Antibacterial activity against methicilin-resistant Staphylococcus aureus 21455 assessed as inhibition of bacterial growth
[5] = system: Bacillus cereus; test: Antibacterial activity against Bacillus cereus ATCC 11788 assessed as inhibition of bacterial growth
[6] = system: Enterococcus faecium; test: Antibacterial activity against Vancomycin-resistant Enterococcus […] ATCC 700802 assessed as inhibition of bacterial growth
[7] = system: Enterococcus faecium; test: Antibacterial activity against Vancomycin-resistant Enterococcus faecium 1014 assessed as inhibition of bacterial growth
[8] = system: Staphylococcus aureus; test: Antibacterial activity against methicilin-resistant Staphylococcus aureus 1003 assessed as inhibition of bacterial growth
[9] = system: Staphylococcus saprophyticus; test: Antibacterial activity against Staphylococcus saprophyticus ATCC 49453 assessed as inhibition of bacterial growth
[10] = system: Enterococcus faecium; test: Antibacterial activity against Vancomycin-resistant Enterococcus […] ATCC 29212 assessed as inhibition of bacterial growth; conditions: Enterococcus faecalis
[11] = system: Staphylococcus aureus; test: Antibacterial activity against Staphylococcus aureus 29213 assessed as inhibition of bacterial growth
[12] = system: Staphylococcus saprophyticus; test: Antibacterial activity against Staphylococcus saprophyticus ATCC BAA 750 assessed as inhibition of bacterial growth
[13] = system: Staphylococcus epidermidis; test: Antibacterial activity against Staphylococcus epidermidis 12228 assessed as inhibition of bacterial growth
[14] = system: Staphylococcus saprophyticus; test: Antibacterial activity against Staphylococcus saprophyticus ATCC 49907 assessed as inhibition of bacterial growth
[15] = system: Staphylococcus aureus; test: Antibacterial activity against methicilin-resistant Staphylococcus aureus ATCC 700699 assessed as inhibition of bacterial growth
[16] = system: Bacillus subtilis; test: Antibacterial activity against Bacillus subtilis ATCC 6633 assessed as inhibition of bacterial growth

Row | Structure (SMILES) | MIC [1] [µg/mL] | MIC [2] [µg/mL] | MIC [3] [µg/mL] | MIC [4] [µg/mL] | MIC [5] [µg/mL] | MIC [6] [µg/mL] | MIC [7] [µg/mL] | MIC [8] [µg/mL] | MIC [9] [µg/mL] | MIC [10] [µg/mL] | MIC [11] [µg/mL] | MIC [12] [µg/mL] | MIC [13] [µg/mL] | MIC [14] [µg/mL] | MIC [15] [µg/mL] | MIC [16] [µg/mL]
1 | CCC[C@@H]1NC(=O)[C@H](C)NC(=O)[C@H](NC(=O)[C@H](CO)NC(=O)[C@@H](NC(=O)[C@H](NC(=O)[C@@H](CCC(N)=O)NC(=O)[C@H](CO)NC(=O)[C@@H](NC(=O)[C@@H](Cc2ccccc2)NC)[C@@H](C)CC)[C@@H](C)CC)[C@@H](C)CC)[C@H](C)OC(=O)[C@H]([C@@H](C)CC)NC1=O | 0.063 (≈ 0.0531 µM) | 0.063 (≈ 0.0531 µM) | 0.063 (≈ 0.0531 µM) | 0.125 (≈ 0.105 µM) | 0.063 (≈ 0.0531 µM) | 1 (≈ 0.842 µM) | 1 (≈ 0.842 µM) | 0.25 (≈ 0.211 µM) | 0.063 (≈ 0.0531 µM) | 1 (≈ 0.842 µM) | 0.125 (≈ 0.105 µM) | 0.063 (≈ 0.0531 µM) | 0.125 (≈ 0.105 µM) | 0.063 (≈ 0.0531 µM) | 0.5 (≈ 0.421 µM) | 0.063 (≈ 0.0531 µM)
2 | CCC[C@@H]1NC(=O)[C@H](C)NC(=O)[C@H](NC(=O)[C@H](CO)NC(=O)[C@@H](NC(=O)[C@H](NC(=O)[C@@H](CCCNC(=N)N)NC(=O)[C@H](CO)NC(=O)[C@@H](NC(=O)[C@@H](Cc2ccccc2)NC)[C@@H](C)CC)[C@@H](C)CC)[C@@H](C)CC)[C@H](C)OC(=O)[C@H]([C@@H](C)CC)NC1=O | 0.063 (≈ 0.0518 µM) | 0.063 (≈ 0.0518 µM) | 0.063 (≈ 0.0518 µM) | 0.125 (≈ 0.103 µM) | 0.5 (≈ 0.411 µM) | 0.5 (≈ 0.411 µM) | 1 (≈ 0.823 µM) | 0.125 (≈ 0.103 µM) | 0.063 (≈ 0.0518 µM) | 1 (≈ 0.823 µM) | 0.125 (≈ 0.103 µM) | 0.063 (≈ 0.0518 µM) | 0.063 (≈ 0.0518 µM) | 0.063 (≈ 0.0518 µM) | 0.063 (≈ 0.0518 µM) | 0.063 (≈ 0.0518 µM)
3 | CC[C@H](C)[C@H](NC(=O)[C@@H](Cc1ccccc1)NC)C(=O)N[C@@H](CCCNC(=N)N)C(=O)N[C@H](CCC(N)=O)C(=O)N[C@@H](C(=O)N[C@H](C(=O)N[C@@H](CO)C(=O)N[C@H]1C(=O)N[C@@H](C)C(=O)N[C@@H](C2CCCCC2)C(=O)N[C@@H]([C@@H](C)CC)C(=O)O[C@H]1C)[C@@H](C)CC)[C@@H](C)CC | 0.063 (≈ 0.0486 µM) | < 0.063 | 0.063 (≈ 0.0486 µM) | 0.125 (≈ 0.0964 µM) | 0.063 (≈ 0.0486 µM) | 0.063 (≈ 0.0486 µM) | 0.063 (≈ 0.0486 µM) | 0.063 (≈ 0.0486 µM) | < 0.063 | 0.125 (≈ 0.0964 µM) | 0.063 (≈ 0.0486 µM) | 0.063 (≈ 0.0486 µM) | 0.063 (≈ 0.0486 µM) | 0.063 (≈ 0.0486 µM) | 0.063 (≈ 0.0486 µM) | 0.063 (≈ 0.0486 µM)
4 | CCC[C@@H]1NC(=O)[C@H](CCCNC(=N)N)NC(=O)[C@H](NC(=O)[C@H](CO)NC(=O)[C@@H](NC(=O)[C@H](NC(=O)[C@@H](CCC(N)=O)NC(=O)[C@H](CO)NC(=O)[C@@H](NC(=O)[C@@H](Cc2ccccc2)NC)[C@@H](C)CC)[C@@H](C)CC)[C@@H](C)CC)[C@H](C)OC(=O)[C@H]([C@@H](C)CC)NC1=O | 0.25 (≈ 0.196 µM) | 0.063 (≈ 0.0495 µM) | 0.063 (≈ 0.0495 µM) | 0.25 (≈ 0.196 µM) | 0.5 (≈ 0.393 µM) | 1 (≈ 0.786 µM) | 2 (≈ 1.57 µM) | 1 (≈ 0.786 µM) | 0.063 (≈ 0.0495 µM) | 2 (≈ 1.57 µM) | 0.5 (≈ 0.393 µM) | 0.063 (≈ 0.0495 µM) | 0.063 (≈ 0.0495 µM) | 0.063 (≈ 0.0495 µM) | 0.5 (≈ 0.393 µM) | 0.063 (≈ 0.0495 µM)
5 | CCC[C@@H]1NC(=O)[C@H](C)NC(=O)[C@H](NC(=O)[C@H](CO)NC(=O)[C@@H](NC(=O)[C@H](NC(=O)[C@@H](CCC(N)=O)NC(=O)[C@H](CCCNC(=N)N)NC(=O)[C@@H](NC(=O)[C@@H](Cc2ccccc2)NC)[C@@H](C)CC)[C@@H](C)CC)[C@@H](C)CC)[C@H](C)OC(=O)[C@H]([C@@H](C)CC)NC1=O | 0.063 (≈ 0.0501 µM) | 0.063 (≈ 0.0501 µM) | 0.063 (≈ 0.0501 µM) | 0.063 (≈ 0.0501 µM) | 0.063 (≈ 0.0501 µM) | 1 (≈ 0.796 µM) | 1 (≈ 0.796 µM) | 0.125 (≈ 0.0995 µM) | 0.063 (≈ 0.0501 µM) | 2 (≈ 1.59 µM) | 0.125 (≈ 0.0995 µM) | 0.063 (≈ 0.0501 µM) | 0.063 (≈ 0.0501 µM) | 0.063 (≈ 0.0501 µM) | 0.25 (≈ 0.199 µM) | 0.063 (≈ 0.0501 µM)
6 | CCC[C@@H]1NC(=O)[C@H](CCCNC(=N)N)NC(=O)[C@H](NC(=O)[C@H](CO)NC(=O)[C@@H](NC(=O)[C@H](NC(=O)[C@@H](CCC(N)=O)NC(=O)[C@H](CCCNC(=N)N)NC(=O)[C@@H](NC(=O)[C@@H](Cc2ccccc2)NC)[C@@H](C)CC)[C@@H](C)CC)[C@@H](C)CC)[C@H](C)OC(=O)[C@H]([C@@H](C)CC)NC1=O | 0.25 (≈ 0.186 µM) | 0.125 (≈ 0.0932 µM) | 0.125 (≈ 0.0932 µM) | 0.5 (≈ 0.373 µM) | 1 (≈ 0.745 µM) | 2 (≈ 1.49 µM) | 2 (≈ 1.49 µM) | 1 (≈ 0.745 µM) | 0.063 (≈ 0.047 µM) | 2 (≈ 1.49 µM) | 0.5 (≈ 0.373 µM) | 0.063 (≈ 0.047 µM) | 0.063 (≈ 0.047 µM) | 0.063 (≈ 0.047 µM) | 0.25 (≈ 0.186 µM) | 0.063 (≈ 0.047 µM)
